Patent US20150218212A1, “FLUORINATED EPOXYKETONE-BASED TETRAPEPTIDE COMPOUNDS AND USES THEREOF AS PROTEASOME INHIBITORS” (FLUORINOV PHARMA INC., priority 2012, published 2015)

Experiments:
Type in all cases: cell-based, human
[1] = test system: A549/ATCC; experiment: NCI screening panel, A549/ATCC (Non-Small Cell Lung Cancer)
Experimental: (§1) Representative compounds of Formula I were screened using the National Cancer Institute (NCI) screening panel, which consists of a panel of human tumor cell lines, representing leukemia, melanoma, and cancers of the lung, colon, ovary, breast, prostate and renal system.
(§2) After 24 h, two plates of each cell line are fixed in situ with TCA, to represent a measurement of the cell population for each cell line at the time of drug addition (Tz). Experimental drugs are solubilised in dimethyl sulfoxide at 400-fold the desired final maximum test concentration and stored frozen prior to use. At the time of drug addition, an aliquot of frozen concentrate is thawed and diluted to twice the desired final maximum test concentration with complete medium containing 50 μg/mL gentamicin. Additional four, 10-fold or ½ log serial dilutions are made to provide a total of five drug concentrations plus control. Aliquots of 100 μl of these different drug dilutions are added to the appropriate microtiter wells already containing 100 μl of medium, resulting in the required final drug concentrations.
(§3) Following drug addition, the plates are incubated for an additional 48 h at 37° C., 5% CO2, 95% air, and 100% relative humidity. For adherent cells, the assay is terminated by the addition of cold TCA (trichloroacetic acid). Cells are fixed in situ by the gentle addition of 50 μl of cold 50% (w/v) TCA (final concentration, 10% TCA) and incubated for 60 minutes at 4° C. The supernatant is discarded, and the plates are washed five times with tap water and air dried. Sulforhodamine B (SRB) solution (100 μl) at 0.4% (w/v) in 1% acetic acid is added to each well, and plates are incubated for 10 minutes at room temperature. After staining, unbound dye is removed by washing five times with 1% acetic acid and the plates are air dried. Bound stain is subsequently solubilised with 10 mM trizma base, and the absorbance is read on an automated plate reader at a wavelength of 515 nm. For suspension cells, the methodology is the same except that the assay is terminated by fixing settled cells at the bottom of the wells by gently adding 50 μl of 80% TCA (final concentration, 16% TCA). Using the seven absorbance measurements [time zero, (Tz), control growth, (C), and test growth in the presence of drug at the five concentration levels (Ti)], the percentage growth is calculated at each of the drug concentrations levels. Percentage growth inhibition is calculated as: [(Ti−Tz)/(C−Tz)]×100 for concentrations for which Ti>/=Tz and [(Ti−Tz)/Tz]×100 for concentrations for which Ti<Tz.
(§4) Three dose response parameters are calculated for each experimental agent. Growth inhibition of 50% (GI50) is calculated from [(Ti−Tz)/(C−Tz)]×100=50, which is the drug concentration resulting in a 50% reduction in the net protein increase (as measured by SRB staining) in control cells during the drug incubation. The drug concentration resulting in total growth inhibition (TGI) is calculated from Ti=Tz. The LC50 (concentration of drug resulting in a 50% reduction in the measured protein at the end of the drug treatment as compared to that at the beginning) indicating a net loss of cells following treatment is calculated from [(Ti−Tz)/Tz]×100=−50. Values are calculated for each of these three parameters if the level of activity is reached. However, if the effect is not reached or is exceeded, the value for that parameter is expressed as greater or less than the maximum or minimum concentration tested.

[2] = test system: CAKI-1; experiment: NCI screening panel, CAKI-1 (Renal Cancer)
Experimental: as §1, §2, §3, §4

[3] = test system: MCF7; experiment: NCI screening panel, MCF7 (Breast Cancer)
Experimental: as §1, §2, §3, §4

[4] = test system: LOX IMVI; experiment: NCI screening panel, LOX IMVI (Melanoma)
Experimental: as §1, §2, §3, §4

[5] = test system: MOLT-4; experiment: NCI screening panel, MOLT-4 (Leukemia)
Experimental: as §1, §2, §3, §4

[6] = test system: RPMI-8226; experiment: NCI screening panel, RPMI-8226 (Leukemia)
Experimental: as §1, §2, §3, §4

[7] = test system: OVCAR-4; experiment: NCI screening panel, OVCAR-4 (Ovarian Cancer)
Experimental: as §1, §2, §3, §4

[8] = test system: NCI-H460; experiment: NCI screening panel, NCI-H460 (Non-Small Cell Lung Cancer)
Experimental: as §1, §2, §3, §4

[9] = test system: NCI-H226; experiment: NCI screening panel, NCI-H226 (Non-Small Cell Lung Cancer)
Experimental: as §1, §2, §3, §4

[10] = test system: SR; experiment: NCI screening panel, SR (Leukemia)
Experimental: as §1, §2, §3, §4

[11] = test system: HCT-15; experiment: NCI screening panel, HCT-15 (Colon Cancer)
Experimental: as §1, §2, §3, §4

Row | SMILES | Log10GI50 [1] | Log10TGI50 [1] | Log10GI50 [2] | Log10LC50 [2] | Log10TGI50 [2] | Log10GI50 [3] | Log10LC50 [3] | Log10TGI50 [3] | Log10GI50 [4] | Log10LC50 [4] | Log10TGI50 [4] | Log10GI50 [5] | Log10TGI50 [5] | Log10GI50 [6] | Log10LC50 [6] | Log10TGI50 [6] | Log10GI50 [7] | Log10TGI50 [7] | Log10GI50 [8] | Log10LC50 [8] | also measured
1 | CC(C)C[C@H](NC(=O)[C@H](COC(F)F)NC(=O)CN1CCOCC1)C(=O)N[C@@H](Cc1ccccc1)C(=O)N[C@@H](Cc1ccccc1)C(=O)[C@@]1(C)CO1 [Example 3, (2S)-N-[(1S)-1-benzyl-2-[[(1S)-1-benzyl-2-[(2R)-2-methyloxiran-2-yl]-2-oxo-ethyl]amino]-2-oxo-ethyl]-2-[[(2S)-3-(difluoromethoxy)-2-[(2-morpholinoacetyl)-amino]propanoyl]amino]-4-methyl-pentan-amide] | −7.65 | >−4.00 | −7.11 | −4.92 | −6.30 | <−8.00 | >−4.00 | −4.65 | <−8.00 | −7.13 | −7.71 | <−8.00 | >−4.00 | <−8.00 | >−4.00 | −7.48 | −7.88 | >−4.00 | −7.43 | −5.64 | Log10LC50 [1]: >−4.00; Log10TGI50 [8]: −6.77; Log10GI50 [9]: <−8.00; Log10LC50 [9]: −7.24; Log10TGI50 [9]: −7.92; Log10GI50 [10]: <−8.00; Log10LC50 [10]: >−4.00; Log10TGI50 [10]: >−4.00; Log10GI50 [11]: −6.51; Log10LC50 [11]: >−4.00; Log10TGI50 [11]: >−4.00
2 | CC(C)C[C@H](NC(=O)[C@H](COC(F)F)NC(=O)CN1CCOCC1)C(=O)N[C@@H](COC(F)F)C(=O)N[C@@H](Cc1ccccc1)C(=O)[C@@]1(C)CO1 [Example 4, (2S)-N-[(1S)-2-[[(1S)-1-benzyl-2-[(2R)-2-methyloxiran-2-yl]-2-oxo-ethyl]amino]-1-(difluoromethoxymethyl)-2-oxo-ethyl]-2-[[(2S)-3-(difluoromethoxy)-2-[(2-mor-pholinoacetyl)amino]propanoyl]amino]-4 methyl-pentanamide] | −7.38 | −4.55 | −6.20 | >−4.00 | −5.22 | <−8.00 | >−4.00 | −4.82 | −7.77 | −7.06 | −7.42 | −7.82 | −7.07 | −7.51 | >−4.00 | −6.54 | −7.43 | −6.34 | −6.84 | −4.04 | Log10LC50 [1]: >−4.00; Log10LC50 [5]: >−4.00; Log10LC50 [7]: >−4.00; Log10TGI50 [8]: −6.19; Log10GI50 [9]: −7.66; Log10LC50 [9]: −6.57; Log10TGI50 [9]: −7.30; Log10GI50 [10]: −7.66; Log10LC50 [10]: >−4.00; Log10TGI50 [10]: >−4.00; Log10GI50 [11]: −5.91; Log10LC50 [11]: >−4.00; Log10TGI50 [11]: −4.62
3 | CC(C)C[C@H](NC(=O)[C@H](COC(F)F)NC(=O)[C@H](COC(F)F)NC(=O)[C@H](CCc1ccccc1)NC(=O)CN1CCOCC1)C(=O)[C@@]1(C)CO1 [Example 7, (2S)-N-[(1S)-1-(difluoromethoxymethyl)-2-[[(1S)-1-(difluoromethoxymethyl)-2-[[(1S)-3-methyl-1-[(2R)-2-methyloxirane-2-carbo-nyl]butyl]amino]-2-oxo-ethyl]amino]-2-oxo-ethyl]-2-[(2-morpholinoacetyl)amino]-4-phenyl-butanamide] | −7.43 | >−4.00 | −6.40 | >−4.00 | −5.62 | <−8.00 | >−4.00 | >−4.00 | −7.99 | −7.13 | −7.56 | −7.71 | −6.85 | −7.56 | >−4.00 | −7.04 | −7.69 | >−4.00 | −7.28 | >−4.00 | Log10LC50 [1]: >−4.00; Log10LC50 [5]: >−4.00; Log10LC50 [7]: >−4.00; Log10TGI50 [8]: −6.50; Log10GI50 [9]: −7.75; Log10LC50 [9]: −7.08; Log10TGI50 [9]: −7.41; Log10GI50 [10]: −7.64; Log10LC50 [10]: >−4.00; Log10TGI50 [10]: >−4.00; Log10GI50 [11]: −5.89; Log10LC50 [11]: >−4.00; Log10TGI50 [11]: >−4.00
4 | CC(C)C[C@H](NC(=O)[C@H](Cc1ccccc1)NC(=O)[C@H](COC(F)F)NC(=O)[C@H](COC(F)F)NC(=O)CN1CCOCC1)C(=O)[C@@]1(C)CO1 [Example 11, (2S)-2-[[(2S)-3-(difluoromethoxy)-2-[[(2S)-3-(difluoromethoxy)-2-[(2-morpholinoacetyl)-amino]propanoyl]amino]propanoyl]amino]-N-[(1S)-3-methyl-1-[(2R)-2-methyloxirane-2-carbonyl]butyl]-3-phenyl-propanamide] | −7.40 | >−4.00 | −6.39 | >−4.00 | −5.55 | <−8.00 | >−4.00 | >−4.00 | −7.79 | −7.09 | −7.44 | <−8.00 | −6.83 | −7.65 | >−4.00 | −7.02 | −7.68 | −5.69 | −7.29 | −4.85 | Log10LC50 [5]: >−4.00; Log10LC50 [7]: >−4.00; Log10TGI50 [8]: −6.51; Log10GI50 [9]: −7.77; Log10LC50 [9]: −7.11; Log10TGI50 [9]: −7.44; Log10GI50 [10]: −7.82; Log10LC50 [10]: >−4.00; Log10TGI50 [10]: >−4.00; Log10GI50 [11]: −6.00; Log10LC50 [11]: >−4.00; Log10TGI50 [11]: −4.42
